Consider 21 compounds from patent US10851067B2, “Kv7 channel activators compositions and methods of use” (Knopp Biosciences LLC, priority 2018, dated 2020).

For the test, the target named is Kv7.2/7.3 (Homo sapiens, UniProt O43525+O43526). The test is described as follows: Kv7.2/7.3 Activation Assay, QPatch single concentration screen. Format: cell-based. Also noted: host or cells: HEK cells, tetracycline-inducible expression; key: 1.2-2.9 (+); 3-3.9 (++); >4 (+++) fold increase over baseline; O represents open channel at holding potential. Particulars: Kv7.2/Kv7.3 co-expressing HEK cells, compound concentration 3 μM, steady-state current at end of 2 s pulse to −30 mV. On the procedure:
Kv7.2/7.3 Activation Assay
The ability of compounds to potentiate K-currents in Kv7.2/7.3 containing HEK cells was assessed using planar patch-clamp on the QPatch automated screening platform.
The hKv7.2/7.3 cell line was obtained from Chantest (Cleveland, Ohio 44128) cat. #CT6147. These HEK cells will express the Kv7.2/7.3 ion channels when induced.
Cells were maintained in a media containing DMEM/F12; 50/50 (GIBCO cat. #11330), 10% Fetal Bovine Serum (FBS) (GIBCO cat. #26140), 100 units/mL Penicillin-Streptomycin (GIBCO cat. #15140), 0.005 mg/mL Blasticidin (INVIVOGEN cat. #ant-b1-1), 0.5 mg/mL Geneticin (GIBCO cat. #10131), 0.1 mg/mL Zeocin (GIBCO cat. #R25001). Cells used in the electrophysiology assay were maintained in a media without Blasticidin, Geneticin and Zeocin for 2 days and channel expression was induced by adding tetracycline (BIOLINE cat. #BIO-87030) at a final concentration of 1 mg/mL. Cells were grown in T-175 flask to ˜75% confluency. Currents were recorded 24 hours after channel induction.
Test compounds were prepared by performing serial dilutions on a Biomek NX^P (BECKMAN COULTER). Final dilutions were made in external recording solution with a final DMSO concentration of 0.1% DMSO. For single concentration screens each plate had 10 μM retigabine as a positive control and 0.1% DMSO as a negative control.
On the day of the experiment cells were washed with Hank's Balanced Salt Solution (HBBS) (GIBCO cat. #14175) and harvested with Tryple (GIBCO cat. #12604). Cells were then centrifuged at 2000 rpm for 5 minutes and resuspended in CHO-S-SFM (GIBCO cat. #12052) at ˜3×10^6 cells/mL. Cells were stirred for 30 minutes before experiments were started. External recording solution contained (in mM): NaCl (145), KCl (4), CaCl2 (2), MgCl2 (1), HEPES (10) and Glucose (10); pH was adjusted to 7.4 with NaOH and the osmolarity was adjusted to 300-305 mOsM with sucrose if necessary. Internal solution contained (in mM): KCl (125), KF (10), EGTA (5), Na2ATP (5), MgCl2 (3.2), HEPES (5); pH was adjusted to 7.2 with KOH and the osmolarity was adjusted to 298-302 mOsM with sucrose.
Potassium channel activity was measured on the QPatch HTX (Sophion Bioscience) using QPlates with 48-wells/plate. Each cell was taken as an independent experiment and only one compound was tested per well. Potassium channel activity was elicited by holding at −80 mV and stepping to −30 mV for 2 s followed by a 100 ms pulse to −120 mV.
Single Concentration Screen:
Baseline conditions were obtained by recording 5 sweeps in the external solution only, this was repeated for three applications of the external solution. The effect of test compounds on elicited current was then assessed by recording 5 sweeps in the presence of a 3 μM compound solution. The steady-state current at the end of the 2 s pulse to −30 mV was measured to determine the fold increase from baseline.
For orientation: In patch-clamp work, channel activity is measured electrically.
With `CC(C)(O)c1ccc2nc(NC(=O)CC(C)(O)c3ccccc3)n(C34CC(C3)C4)c2c1` (single isomer, unassigned) [Example 335, N-(1-(bicyclo[1.1.1]pentan-1-yl)-6-(2-hydroxypropan-2-yl)-1H-benzo[d]imidazol-2-yl)-3-hydroxy-3-phenylbutanamide], the “Kv7.2/7.3 Activity: increase over baseline in current” value (“Kv7.2/7.3 Activity: increase” below) is reported as “O”.

With `CC(O)(CC(=O)Nc1nc2c(F)cc(C#N)cc2n1C(C)(C)C)c1cccc(F)c1` (single isomer, unassigned) [Example 339, N-(1-(tert-butyl)-6-cyano-4-fluoro-1H-benzo[d]imidazol-2-yl)-3-(3-fluorophenyl)-3-hydroxybutanamide], the “Kv7.2/7.3 Activity: increase” value is listed as “O”.

As for `CC(C)(C)Cn1c(NC(=O)CC(C)(O)c2ccccc2)nc2ccc(C#N)cc21` (single isomer, unassigned) [Example 341, N-(6-cyano-1-neopentyl-1H-benzo[d]imidazol-2-yl)-3-hydroxy-3-phenylbutanamide], the “Kv7.2/7.3 Activity: increase” value was “+ (1.2-2.9 (+))”.

Regarding `CC(O)(CC(=O)Nc1nc2ccc(C#N)cc2n1CC1CC1)c1ccccc1` (single isomer, unassigned) [Example 344, N-(6-cyano-1-(cyclopropylmethyl)-1H-benzo[d]imidazol-2-yl)-3-hydroxy-3-phenylbutanamide], the “Kv7.2/7.3 Activity: increase” value is “+ (1.2-2.9 (+))”.

On to `CC(O)(CC(=O)Nc1nc2cc(Cl)c(C#N)cc2n1C1CCC1)c1ccccc1` (single isomer, unassigned) [Example 347, N-(5-chloro-6-cyano-1-cyclobutyl-1H-benzo[d]imidazol-2-yl)-3-hydroxy-3-phenylbutanamide], for which the “Kv7.2/7.3 Activity: increase” value is “+ (1.2-2.9 (+))”.

Turning to `CC(O)(CC(=O)Nc1nc2c(F)cc(C#N)cc2n1C(C)(C)C)c1ccccc1F` (single isomer, unassigned) [Example 348, N-(1-(tert-butyl)-6-cyano-4-fluoro-1H-benzo[d]imidazol-2-yl)-3-(2-fluorophenyl)-3-hydroxybutanamide], the “Kv7.2/7.3 Activity: increase” value was “O”.

As for `CC(O)(CC(=O)Nc1nc2cc(F)c(C#N)cc2n1C1CCC1)c1ccccc1` (single isomer, unassigned) [Example 350, N-(6-cyano-1-cyclobutyl-5-fluoro-1H-benzo[d]imidazol-2-yl)-3-hydroxy-3-phenylbutanamide], the “Kv7.2/7.3 Activity: increase” value is reported as “+ (1.2-2.9 (+))”.

For the compound `COc1cccc2nc(NC(=O)CC(C)(O)c3ccccc3)n(C3CCC3)c12` (single isomer, unassigned) [Example 358, N-(1-cyclobutyl-7-methoxy-1H-benzo[d]imidazol-2-yl)-3-hydroxy-3-phenylbutanamide], the “Kv7.2/7.3 Activity: increase” value is listed as “+ (1.2-2.9 (+))”.

Take `CC(=O)c1c(F)ccc2nc(NC(=O)CC(C)(O)c3ccccc3)n(C3(C)CCC3)c12` (single isomer, unassigned) [Example 360, N-(7-acetyl-6-fluoro-1-(1-methylcyclobutyl)-1H-benzo[d]imidazol-2-yl)-3-hydroxy-3-phenylbutanamide]: the “Kv7.2/7.3 Activity: increase” value was “O”.

With `CC(C)(O)c1ccc2nc(NC(=O)CC(C)(O)c3ccccc3)n(C34CC(C3)C4)c2c1` (single isomer, unassigned) [Example 371, N-(1-(bicyclo[1.1.1]pentan-1-yl)-6-(2-hydroxypropan-2-yl)-1H-benzo[d]imidazol-2-yl)-3-hydroxy-3-phenylbutanamide], the “Kv7.2/7.3 Activity: increase” value is reported as “O”.

`CC(O)(CC(=O)Nc1nc2cc(F)c(C#N)cc2n1C1(C)CCC1)c1ccccc1F` (single isomer, unassigned) [Example 373, N-(6-cyano-5-fluoro-1-(1-methylcyclobutyl)-1H-benzo[d]imidazol-2-yl)-3-(2-fluorophenyl)-3-hydroxybutanamide]: the “Kv7.2/7.3 Activity: increase” value is “++ (3-3.9 (++))”.

On to `CC(O)(CC(=O)Nc1nc2ccc(OC(F)F)c(F)c2n1C1(C)CCC1)c1ccccc1` (single isomer, unassigned) [Example 374, N-(6-(difluoromethoxy)-7-fluoro-1-(1-methylcyclobutyl)-1H-benzo[d]imidazol-2-yl)-3-hydroxy-3-phenylbutanamide], for which the “Kv7.2/7.3 Activity: increase” value is on record as “++ (3-3.9 (++))”.

`CC(O)(CC(=O)Nc1nc2cccc(C#N)c2n1C1(C)CCC1)c1ccccc1` (single isomer, unassigned) [Example 375, N-(7-cyano-1-(1-methylcyclobutyl)-1H-benzo[d]imidazol-2-yl)-3-hydroxy-3-phenylbutanamide]: the “Kv7.2/7.3 Activity: increase” value is listed as “+ (1.2-2.9 (+))”.

`CC(C)(O)c1ccc2nc(NC(=O)CC3CC(F)(F)C3(F)F)n(C3(C)CCC3)c2c1` (single isomer, unassigned) [Example 376, N-(6-(2-hydroxypropan-2-yl)-1-(1-methylcyclobutyl)-1H-benzo[d]imidazol-2-yl)-2-(2,2,3,3-tetrafluorocyclobutyl)acetamide]: the “Kv7.2/7.3 Activity: increase” value was “+ (1.2-2.9 (+))”.

For `CC(O)(CC(=O)Nc1nc2ccc(C#N)cc2n1C1(C)CCC1)c1c(F)cccc1F` (single isomer, unassigned) [Example 384, N-(6-cyano-1-(1-methylcyclobutyl)-1H-benzo[d]imidazol-2-yl)-3-(2,6-difluorophenyl)-3-hydroxybutanamide], the “Kv7.2/7.3 Activity: increase” value is given as “++ (3-3.9 (++))”.

Consider `CC(O)(CC(=O)Nc1nc2ccc(C#N)cc2n1CC(F)(F)F)c1ccccc1` (single isomer, unassigned) [Example 396, N-(6-cyano-1-(2,2,2-trifluoroethyl)-1H-benzo[d]imidazol-2-yl)-3-hydroxy-3-phenylbutanamide], for which the “Kv7.2/7.3 Activity: increase” value was “+ (1.2-2.9 (+))”.

With `CC(C)(O)c1ccc2nc(NC(=O)CC3CC(F)(F)C3(F)F)n(C3CCC3)c2c1` (single isomer, unassigned) [Example 398, N-(1-cyclobutyl-6-(2-hydroxypropan-2-yl)-1H-benzo[d]imidazol-2-yl)-2-(2,2,3,3-tetrafluorocyclobutyl)acetamide], the “Kv7.2/7.3 Activity: increase” value is “+ (1.2-2.9 (+))”.

As for `CC(C)(O)c1cc(F)c2nc(NC(=O)CC3CC(F)(F)C3(F)F)n(C3CCC3)c2c1` (single isomer, unassigned) [Example 400, N-(1-cyclobutyl-4-fluoro-6-(2-hydroxypropan-2-yl)-1H-benzo[d]imidazol-2-yl)-2-(2,2,3,3-tetrafluorocyclobutyl)acetamide], the “Kv7.2/7.3 Activity: increase” value was “+++ (>4 (+++) fold increase over baseline)”.

Take `CC(O)(CC(=O)Nc1nc2ccc(OC(F)F)cc2n1C1CCC1)c1ccccc1` (single isomer, unassigned) [Example 402, N-(1-cyclobutyl-6-(difluoromethoxy)-1H-benzo[d]imidazol-2-yl)-3-hydroxy-3-phenylbutanamide]: the “Kv7.2/7.3 Activity: increase” value is recorded as “++ (3-3.9 (++))”.

Consider `CC(C)(C)n1c(NC(=O)CC2CC(F)(F)C2(F)F)nc2c(F)cc(C#N)cc21` (single isomer, unassigned) [Example 416, N-(1-(tert-butyl)-6-cyano-4-fluoro-1H-benzo[d]imidazol-2-yl)-2-(2,2,3,3-tetrafluorocyclobutyl)acetamide], for which the “Kv7.2/7.3 Activity: increase” value is “++ (3-3.9 (++))”.

`CC(O)(CC(=O)Nc1nc2ccc(OC(F)F)cc2n1C(C)(C)C)c1ccccc1` (single isomer, unassigned) [Example 418, N-(1-(tert-butyl)-6-(difluoromethoxy)-1H-benzo[d]imidazol-2-yl)-3-hydroxy-3-phenylbutanamide]: the “Kv7.2/7.3 Activity: increase” value is reported as “++ (3-3.9 (++))”.
